US12385009B2, “Methods and compositions for generating oligodendrocyte progenitor cells” (Trailhead Biosystems Inc., priority 2021, dated 2025)
Entries after “also recorded” stand apart in the source; their conditions may differ.

tested on: human pluripotent stem cells; assay: HD-DoE #1: 8-factor experiment, gene expression after 3-day treatment with effectors; type: cell-based; conditions: 8-factor model
Text: (§1) This example utilizes a method of High-Dimensional Design of Experiments (HD-DoE), as previously described in Bukys et al. (2020) Iscience 23:101346. The method employs computerized design geometries to simultaneously test multiple process inputs and offers mathematical modeling of a deep effector/response space. The method allows for finding combinatorial signaling inputs that control a complex process, such as during cell differentiation. It allows testing of multiple plausible critical process parameters, as such parameters impact output responses, such as gene expression. Because gene expression provides hallmark features of the phenotype of, for example, a human cell, the method can be applied to identify, and understand, which signaling pathways control cell fate. In the current example, the HD-DOE method was applied with the intent to find conditions for induction of oligodendrocyte progenitor-expressed genes, directly from the pluripotent stem cell state.
(§2) Specifically, to develop a novel method to generate oligodendrocytes, the impact of agonists and antagonists of multiple signaling pathways (herein called effectors) were tested on expression of two sets of 53 pre-selected genes after a 3-day treatment. These effectors are small molecules that are commonly used during stepwise differentiation of stem cells to specific fates. Choice of the effectors were based on current literature on neural induction in anterior ectoderm and differentiation of stem cells to oligodendrocytes.
To test the effectors, experiments with at least 8 factors were designed that can assess the response of cells to 48 or more different combinations of effectors in a range of concentrations. To analyze the models, we focused on expression of genes expressed during early development of anterior neuroectoderm and oligodendrocytes including NKX2-2, OLIG2, OLIG1, and PDGFRA. The impact of each effector on gene expression level is defined by a parameter called factor contribution that is calculated for each effector during the modeling.
This model tested 8 factors: PD0325901, MK2206, TTNPB, SC79, MHY1485, ZM336372, AGN193109 and AZD3147.

SMILES	effect on expression of targeted oligodendrocyte genes (NKX2-2, OLIG2)
CCOC(=O)C1=C(N)Oc2ccc(Cl)cc2C1C(C#N)C(=O)OCC (centres unmarked) [SC79]	significant positive effect
O=[N+]([O-])c1ccc(Nc2nc(N3CCOCC3)nc(N3CCOCC3)n2)cc1 [MHY1485]	significant positive effect
Cc1ccc(NC(=O)c2cccc(N(C)C)c2)cc1NC(=O)c1ccc(O)cc1 [ZM336372]	negatively impacting
O=C(NOC[C@H](O)CO)c1ccc(F)c(F)c1Nc1ccc(I)cc1F [PD0325901]	negatively impacting; also recorded: negative effect
NC1(c2ccc(-c3nc4ccn5c(=O)[nH]nc5c4cc3-c3ccccc3)cc2)CCC1 [MK2206]	negative effect
C/C(=C\c1ccc(C(=O)O)cc1)c1ccc2c(c1)C(C)(C)CCC2(C)C [TTNPB]	significant positive effect

tested on: human pluripotent stem cells; assay: HD-DoE #2: 13-factor experiment, differentiation toward anterior neuroectoderm (OTX2, FEZF2 expression); type: cell-based; conditions: 13-factor model
Text: as §1, §2
To further enhance the conditions for oligodendrocyte differentiation from pluripotency, we performed an additional HD-DoE experiment. We obtained additional gene regulatory models that were used for preparation of a differentiation protocol. The basis of this was a 13-factor HD-DoE experiment with focus on initiation of differentiation of cells toward anterior neuroectoderm. In this model, we focused on expression of FEZF2 and OTX2.

SMILES	effect on expression of FEZF2 (dynamic profiling analysis)	impact on expression level of OTX2 (dynamic profiling analysis)
Oc1nc(-c2ccc(C(F)(F)F)cc2)nc2c1CSCC2 [XAV939]	significant positive effects	no negative impact
c1ccc2c(Oc3nc(Nc4ccc(N5CCOCC5)cc4)c4ncn(C5CCCCC5)c4n3)cccc2c1 [Purmorphamine]	significant positive effects	no negative impact

same assay, conditions: 13-factor model of high expression of OTX2

SMILES	contribution to expression of OTX2 (in words)
Cc1c[nH]c(-c2cnc(NCCNc3ccc(C#N)cn3)nc2-c2ccc(Cl)cc2Cl)n1 [CHIR99021]	positive contribution
c1ccc2c(-c3cnn4cc(-c5ccc(N6CCNCC6)cc5)cnc34)ccnc2c1 [LDN193189]	positive contribution
COc1ccc2c(c1)c(C1=C(c3c[nH]c4ccccc34)C(=O)NC1=O)cn2CCCN(C)C [Go6983]	positive contribution
O=C(NOC[C@H](O)CO)c1ccc(F)c(F)c1Nc1ccc(I)cc1F [PD0325901]	positive contribution
